Assay results published in patent publication US8008259B2, “Neurotrophin-derived peptide sequences” (Copenhagen University, Techtrans Unit, priority 2005, dated 2011).

What was measured:
[1] = system: cerebellar granule neurons (CGN); test: Neurite outgrowth of primary cerebellar granule neurons in culture; assay type: cell-based, rat; settings: CGN from 7 day old rats, peptide 3-81 μg/ml, 24 hours
Method: Dissociated cerebellar neurons were isolated from 7 day old rats. Cerebellum was isolated from the brain in ice cold modified Krebs Ringer solution, cleared of blood vessels, roughly homogenised by chopping and then trypsinised. The dissociated cells were washed in the presence of DNAse 1 and soybean trypsin inhibitor. Postnatal hippocampal neurons or cerebellar granule neurons (CGN) were plated at a density of 10,000 cells/cm^2 on uncoated 8-well permanox Lab-Tek chamber slides in Neurobasal medium supplemented with 0.4% (w/v) bovine serum albumin (BSA; Sigma-Aldrich), 2% (v/v) B27 Neurobasal supplement, 1% (v/v) glutamax, 100 U/ml penicillin, 100 μg/ml streptomycin and 2% 1 M HEPES (all from Gibco, BRL). After 24 hours, the neurons were fixed with 4% (v/v) formaldehyde for 20 minutes and thereafter immunostained using primary rabbit antibodies against GAP-43 and Alexa Fluor secondary goat anti-rabbit Ig antibodies. Images of at least 200 neurons for each group in each individual experiment were obtained systematically by computer assisted fluorescence microscopy as previously described (Rønn et al., 2000). Briefly, a Nikon Diaphot inverted microscope with a Nikon Plan 20× objective (Nikon, Tokyo, Japan) coupled to a video camera (Grundig Electronics, Germany) was used for recordings. A software package Prima developed at the Protein Laboratory (Copenhagen, Denmark) was used to make a stereologically based determination of neurite length (Rønn et al., 2000).
CGN prepared as described above were treated with different concentrations (3-81 μg/ml) of peptides NGF-C2, NGF-D, NGF-E, NGF-C1, NGF-EE, BDNF-E or BDNF-EE.

TrkC = TrkC (Homo sapiens, UniProt Q16288); test: Surface Plasmon Resonance binding to immobilized TrkC; settings: SPR, 25° C., HBS-EP buffer pH 7.4, receptor immobilized on CM4 chip
Method: The TrkA, TrkB and TrkC receptors and p75^NTR were immobilized on a sensor chip, CM4, using an amine-coupling kit as follows: the chip was activated by 20 μl activation solution, N-hydroxysuccinimide, (NHS) and N-ethyl-N′-(3-[…])-carbodiimide (EDC), the protein was immobilized using 30 μl of a mixture of 4 μl (0.5 μg/ml) protein in 50 μl 10 mM sodium acetate buffer (pH 4.0); and the chip was blocked by 35 μl blocking solution (ethanolamine-HCl). The receptor surface was regenerated between ligand injections with 15 μl 2 mM NaCl or 10 mM glycine-HCl, pH 2.5. In the present experiments a flow rate of 5 μl/min was used.
The curve corresponding to the difference between binding to the Trk receptors or the […] receptor and a blank chip was used for analysis.

focal brain injury = test: Traumatic brain injury model (focal cryo-lesion of right fronto-parietal cortex), immunohistochemistry; assay type: in vivo, rat; settings: lesioned rats, 10 mg/kg/injection subcutaneously on day (−1), 1 and 3
Method: (§1) A focal brain injury on the right fronto-parietal cortex was made by applying a piece of dry-ice (−78° C.) directly onto the skull for 30 seconds in mice and 60 seconds in rats, as previously described in details (Penkowa et al., 2003).
Histochemistry and immunohistochemistry were performed on sections cut from organs taken from fixated animals. Rats and mice were deeply anesthetized with Brietal and flushed by cardiac perfusion with saline containing heparine (0.9% NaCl, 3 ml/L 5000 IU heparine) for 2 minutes followed by fixation with Zamboni's fixative (pH 7.4) for 4-8 minutes depending on the size of the animal. For immunohistochemical investigation, brain were dissected and postfixed in Zamboni's for 2-3 hours, dehydraded in graded alcohol followed by xylol and subsequently embedded in paraffin before being cut in 3 μm frontal sections throughout the entire area of the cryo lesion. […]
Following treatment as described above, sections were incubated overnight at 5° C. with one of the following primary antibodies: polyclonal rabbit anti-cow glial fibrillary acidic protein (GFAP) 1:250 (a marker for astrocytes; DakoCytomation); monoclonal mouse anti-8-hydroxydeoxyguanosine (8-OH-dG) diluted 1:100 in goat serum (a marker for DNA oxidation; Chemicon, Temacula, Calif., USA). The primary antibody was detected with biotynilated secondary antibodies, incubated with streptavidin-biotin-peroxidase complex for 30 min. […]
as §1, with “In vivo experiments—A” for “A”, “2003). […] The primary antibody was detected with biotynilated secondary antibodies, incubated with streptavidin-biotin-peroxidase complex for 30 min. […]” for “2003).”

Chain of TrkC (Q16288 32-839, species assumed): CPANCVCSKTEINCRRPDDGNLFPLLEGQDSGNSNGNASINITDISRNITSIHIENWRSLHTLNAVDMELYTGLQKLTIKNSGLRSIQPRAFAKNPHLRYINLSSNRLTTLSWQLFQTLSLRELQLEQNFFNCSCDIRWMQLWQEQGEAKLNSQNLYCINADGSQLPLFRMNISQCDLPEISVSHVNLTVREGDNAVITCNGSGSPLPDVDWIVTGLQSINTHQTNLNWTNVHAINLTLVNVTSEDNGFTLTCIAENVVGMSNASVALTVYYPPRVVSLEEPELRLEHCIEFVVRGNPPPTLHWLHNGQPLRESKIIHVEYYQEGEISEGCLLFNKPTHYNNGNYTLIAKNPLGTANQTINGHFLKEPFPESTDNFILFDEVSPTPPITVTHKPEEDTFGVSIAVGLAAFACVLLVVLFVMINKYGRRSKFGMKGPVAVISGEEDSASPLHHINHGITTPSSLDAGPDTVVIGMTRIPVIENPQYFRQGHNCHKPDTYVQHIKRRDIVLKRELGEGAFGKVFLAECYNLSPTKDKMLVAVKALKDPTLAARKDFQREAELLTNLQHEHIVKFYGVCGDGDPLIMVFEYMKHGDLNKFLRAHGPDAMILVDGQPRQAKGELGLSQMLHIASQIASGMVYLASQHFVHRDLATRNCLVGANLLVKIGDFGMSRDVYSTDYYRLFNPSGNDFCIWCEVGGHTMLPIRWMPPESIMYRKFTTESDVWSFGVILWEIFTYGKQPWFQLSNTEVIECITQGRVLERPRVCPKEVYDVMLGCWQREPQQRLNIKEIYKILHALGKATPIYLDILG

| Substance | neurite outgrowth from primary neurons in culture [1] | also measured |
| --- | --- | --- |
| H-RGIDKRHWNSQ-OH [BDNF-E] | significantly stimulate neurite outgrowth |  |
| H-CVLSRKAVRRA-OH [NGF-C2] | significantly stimulate neurite outgrowth |  |
| H-RGIDSKHWNSY-OH [NGF-E] | significantly stimulate neurite outgrowth |  |
| NGF-D: NGF-derived peptide, amino acids 2-14 of SEQ ID NO: 1 (YETKCRDPNPVDSG); lacks the hydrophobic residue of motif I (listed as Homo sapiens) | does not have neuritogenic activity |  |
| RIDTACV (listed as Homo sapiens) [NGF-C1, NGF-derived peptide, motif I] | significantly stimulate neurite outgrowth |  |
| H-TFVKALTMDGKQAAWR-OH [NGF-EE] | significantly stimulate neurite outgrowth |  |
| BDNF: Brain-derived neurotrophic factor, member of the neurotrophin family, reference ligand in SPR |  | Kd (TrkC): 14 nM |
| H-SYVRALTMDSKKRIGWR-OH [BDNF-EE] | significantly stimulate neurite outgrowth | cortical astrocytes as reflected by immunostaining for GFAP (focal brain injury): activation of cortical astrocytes; microglia activation as reflected by binding of tomato lectin (focal brain injury): inhibition of microglia activation; oxidative stress as reflected by immunostaining for 8-hydroxydeoxyguanosine (focal brain injury): inhibition of oxidative stress |
